Source: publication PMC5563081, “Modulating Protein-Protein Interactions of the Mitotic Polo-like Kinases to Target Mutant KRAS” (Cell Chemical Biology, 2017)
Where two headings read alike, the source gives them in different places.

Assays:
[1] = tested on: murine pancreatic organoids KRAS MUT p53 MUT; test: Viability of pancreatic organoids (CellTitre Glo 3D), KRAS G12D; assay type: cell-based; conditions: Mus musculus
Protocol: Organoid cultures were prepared from the pancreas of LSL-Trp53^R172H/+, Pdx-1-Cre (for Kras WT organoids) or LSL-Trp53^R172H/+, LSL-Kras^G12D/+, Pdx-1-Cre (for Kras^G12D organoids KPC3760 and KPC26684) strains ([Hingorani et al., 2005]). Pancreatic ducts were manually picked after tissue mincing and overnight enzymatic digestion with 0.012% (w/v) collagenase XI (Sigma) and 0.012% (w/v) dispase (GIBCO) in DMEM media containing 1% FBS (GIBCO), before seeding in growth-factor-reduced (GFR) Matrigel (BD) ([Boj et al., 2015]).
Pancreatic organoids were extracted and cultured as detailed above ([Boj et al., 2015]). In brief, pancreatic organoids were seeded at 600 cells per well in a 96 well plate and allowed to grow for 7 days with media replenishment on the 3rd day. Full-grown organoids were then treated with compounds for 72h and viability determined using CellTitre Glo 3D assay (Promega). For viability assays with c-MET siRNA, cells were reverse transfected in a 6 cm dish using Dharmafect 1 (GE Dharmacon) per manufacturer’s instructions. On the following day, cells were trypsinised and plated onto 96 well plates or 6 well plates. The 96 well plates were treated with a dose range of compounds or DMSO, and viability was determined via SRB colorimetric assay. Cells in the 6 well plates were collected at the end of experiment to corroborate knockdown of c-MET by Western blotting.

ULK3 = molecular target: T1, ULK3 (Homo sapiens, UniProt Q6PHR2); test: DiscoverX KINOMEscan; assay type: binding; conditions: read-out: % Control
T1 construct: purchased DiscoverX KINOMEscan
Protocol: (§1) A panel of 55 proteins (comprising 51 human kinases structurally or functionally related to the PLKs, plus the kinase catalytic domains of PLK1, PLK2, PLK3 and PLK4) were selected for testing by DiscoverX using the KINOMEscan assay platform. Compounds were supplied as 40x DMSO stocks and were tested at a final concentration of 50μM for Poloppin and 5μM for Poloppin-II. Binding interactions were reported as percentage of control where lower numbers indicate stronger binding. A cut-off of <35% was applied to report significant binding.

WNK3 = molecular target: T2, WNK3 (Homo sapiens, UniProt Q9BYP7); test: DiscoverX KINOMEscan; assay type: binding; conditions: read-out: % Control
T2 construct: purchased DiscoverX KINOMEscan
Protocol: as §1

CSNK2A2 = molecular target: T3, CSNK2A2 (Homo sapiens, UniProt P19784); test: DiscoverX KINOMEscan; assay type: binding; conditions: read-out: % Control
T3 construct: purchased DiscoverX KINOMEscan
Protocol: as §1

SgK110 = molecular target: T4, SgK110 (Homo sapiens, UniProt P0C264); test: DiscoverX KINOMEscan; assay type: binding; conditions: read-out: % Control
T4 construct: purchased DiscoverX KINOMEscan
Protocol: as §1

BUB1 = molecular target: T5, BUB1 (Homo sapiens, UniProt O43683); test: DiscoverX KINOMEscan; assay type: binding; conditions: read-out: % Control
T5 construct: purchased DiscoverX KINOMEscan
T5 sequence (O43683 whole entry): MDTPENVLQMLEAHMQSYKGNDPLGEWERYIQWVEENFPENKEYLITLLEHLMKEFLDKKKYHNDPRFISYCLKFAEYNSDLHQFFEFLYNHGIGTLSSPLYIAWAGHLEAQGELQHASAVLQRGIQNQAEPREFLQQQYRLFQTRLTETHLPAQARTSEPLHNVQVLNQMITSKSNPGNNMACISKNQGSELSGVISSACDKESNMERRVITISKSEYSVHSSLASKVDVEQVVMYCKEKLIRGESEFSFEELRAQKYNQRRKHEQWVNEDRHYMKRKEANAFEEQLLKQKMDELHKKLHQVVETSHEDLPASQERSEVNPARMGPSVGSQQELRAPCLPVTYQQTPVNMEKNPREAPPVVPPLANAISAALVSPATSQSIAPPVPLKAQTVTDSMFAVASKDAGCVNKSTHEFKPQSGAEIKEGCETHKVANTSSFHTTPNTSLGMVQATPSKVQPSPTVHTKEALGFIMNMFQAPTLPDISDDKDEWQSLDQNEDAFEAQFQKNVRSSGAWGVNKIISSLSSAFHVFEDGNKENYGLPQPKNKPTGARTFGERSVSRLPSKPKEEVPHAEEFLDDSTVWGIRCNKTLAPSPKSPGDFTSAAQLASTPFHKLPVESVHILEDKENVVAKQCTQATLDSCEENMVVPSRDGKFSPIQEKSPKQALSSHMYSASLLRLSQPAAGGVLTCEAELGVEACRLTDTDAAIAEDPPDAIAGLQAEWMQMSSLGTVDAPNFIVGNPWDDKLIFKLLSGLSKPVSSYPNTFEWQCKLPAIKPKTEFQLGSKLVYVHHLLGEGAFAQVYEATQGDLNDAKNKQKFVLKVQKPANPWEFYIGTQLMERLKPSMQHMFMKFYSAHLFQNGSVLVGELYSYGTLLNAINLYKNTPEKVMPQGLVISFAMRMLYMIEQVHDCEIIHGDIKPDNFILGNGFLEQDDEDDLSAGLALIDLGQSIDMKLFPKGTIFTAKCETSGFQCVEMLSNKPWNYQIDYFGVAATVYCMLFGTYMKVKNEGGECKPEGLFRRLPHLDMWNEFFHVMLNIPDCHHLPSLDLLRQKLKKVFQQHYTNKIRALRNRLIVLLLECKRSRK
Protocol: as §1

AURKB = molecular target: T6, AURKB (Homo sapiens, UniProt Q96GD4); test: DiscoverX KINOMEscan; assay type: binding; conditions: read-out: % Control
T6 construct: purchased DiscoverX KINOMEscan
Protocol: as §1

NEK7 = molecular target: T7, NEK7 (Homo sapiens, UniProt Q8TDX7); test: DiscoverX KINOMEscan; assay type: binding; conditions: read-out: % Control
T7 construct: purchased DiscoverX KINOMEscan
T7 sequence (Q8TDX7 whole entry): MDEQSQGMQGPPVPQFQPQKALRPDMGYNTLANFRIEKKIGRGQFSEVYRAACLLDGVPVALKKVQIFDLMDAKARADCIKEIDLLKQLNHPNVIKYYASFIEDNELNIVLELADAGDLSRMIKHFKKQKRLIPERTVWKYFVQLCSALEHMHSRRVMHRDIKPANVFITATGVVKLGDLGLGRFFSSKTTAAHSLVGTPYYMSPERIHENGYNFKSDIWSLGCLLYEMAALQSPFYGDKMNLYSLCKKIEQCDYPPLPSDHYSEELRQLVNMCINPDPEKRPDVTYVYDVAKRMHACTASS
Protocol: as §1

EIF2AK2 = molecular target: T8, EIF2AK2 (Homo sapiens, UniProt P19525); test: DiscoverX KINOMEscan; assay type: binding; conditions: read-out: % Control
T8 construct: purchased DiscoverX KINOMEscan
Protocol: as §1

GAK = molecular target: T9, GAK (Homo sapiens, UniProt O14976); test: DiscoverX KINOMEscan; assay type: binding; conditions: read-out: % Control
T9 construct: purchased DiscoverX KINOMEscan
Protocol: as §1

AAK1 = molecular target: T10, AAK1 (Homo sapiens, UniProt Q2M2I8); test: DiscoverX KINOMEscan; assay type: binding; conditions: read-out: % Control
T10 construct: purchased DiscoverX KINOMEscan
Protocol: as §1

TBK1 = molecular target: T11, TBK1 (Homo sapiens, UniProt Q9UHD2); test: DiscoverX KINOMEscan; assay type: binding; conditions: read-out: % Control
T11 construct: purchased DiscoverX KINOMEscan
Protocol: as §1

WEE1 = molecular target: T12, WEE1 (Homo sapiens, UniProt P30291); test: DiscoverX KINOMEscan; assay type: binding; conditions: read-out: % Control
T12 construct: purchased DiscoverX KINOMEscan
Protocol: as §1

NEK9 = molecular target: T13, NEK9 (Homo sapiens, UniProt Q8TD19); test: DiscoverX KINOMEscan; assay type: binding; conditions: read-out: % Control
T13 construct: purchased DiscoverX KINOMEscan
Protocol: as §1

EIF2AK4 = molecular target: T14, EIF2AK4 (Homo sapiens, UniProt Q9P2K8, S808G); test: DiscoverX KINOMEscan; assay type: binding; conditions: read-out: % Control
T14 construct: purchased DiscoverX KINOMEscan
Protocol: as §1

CDK2 = molecular target: T15, CDK2 (Homo sapiens, UniProt P24941); test: DiscoverX KINOMEscan; assay type: binding; conditions: read-out: % Control
T15 construct: purchased DiscoverX KINOMEscan
Protocol: as §1

WNK2 = molecular target: T16, WNK2 (Homo sapiens, UniProt Q9Y3S1); test: DiscoverX KINOMEscan; assay type: binding; conditions: read-out: % Control
T16 construct: purchased DiscoverX KINOMEscan
Protocol: as §1

NEK4 = molecular target: T17, NEK4 (Homo sapiens, UniProt P51957); test: DiscoverX KINOMEscan; assay type: binding; conditions: read-out: % Control
T17 construct: purchased DiscoverX KINOMEscan
Protocol: as §1

NEK6 = molecular target: T18, NEK6 (Homo sapiens, UniProt Q9HC98); test: DiscoverX KINOMEscan; assay type: binding; conditions: read-out: % Control
T18 construct: purchased DiscoverX KINOMEscan
T18 sequence (Q9HC98 whole entry): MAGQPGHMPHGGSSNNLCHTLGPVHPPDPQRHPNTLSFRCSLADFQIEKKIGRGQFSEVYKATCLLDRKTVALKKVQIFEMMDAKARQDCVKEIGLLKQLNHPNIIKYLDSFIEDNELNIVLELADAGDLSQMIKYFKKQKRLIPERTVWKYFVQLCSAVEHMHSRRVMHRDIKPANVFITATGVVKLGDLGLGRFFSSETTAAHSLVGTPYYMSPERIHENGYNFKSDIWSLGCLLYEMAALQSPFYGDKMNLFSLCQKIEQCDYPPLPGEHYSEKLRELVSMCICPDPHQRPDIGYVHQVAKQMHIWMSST
Protocol: as §1

SBK1 = molecular target: T19, SBK1 (Homo sapiens, UniProt Q52WX2); test: DiscoverX KINOMEscan; assay type: binding; conditions: read-out: % Control
T19 construct: purchased DiscoverX KINOMEscan
Protocol: as §1

NEK1 = molecular target: T20, NEK1 (Homo sapiens, UniProt Q96PY6); test: DiscoverX KINOMEscan; assay type: binding; conditions: read-out: % Control
T20 construct: purchased DiscoverX KINOMEscan
T20 sequence (Q96PY6 whole entry): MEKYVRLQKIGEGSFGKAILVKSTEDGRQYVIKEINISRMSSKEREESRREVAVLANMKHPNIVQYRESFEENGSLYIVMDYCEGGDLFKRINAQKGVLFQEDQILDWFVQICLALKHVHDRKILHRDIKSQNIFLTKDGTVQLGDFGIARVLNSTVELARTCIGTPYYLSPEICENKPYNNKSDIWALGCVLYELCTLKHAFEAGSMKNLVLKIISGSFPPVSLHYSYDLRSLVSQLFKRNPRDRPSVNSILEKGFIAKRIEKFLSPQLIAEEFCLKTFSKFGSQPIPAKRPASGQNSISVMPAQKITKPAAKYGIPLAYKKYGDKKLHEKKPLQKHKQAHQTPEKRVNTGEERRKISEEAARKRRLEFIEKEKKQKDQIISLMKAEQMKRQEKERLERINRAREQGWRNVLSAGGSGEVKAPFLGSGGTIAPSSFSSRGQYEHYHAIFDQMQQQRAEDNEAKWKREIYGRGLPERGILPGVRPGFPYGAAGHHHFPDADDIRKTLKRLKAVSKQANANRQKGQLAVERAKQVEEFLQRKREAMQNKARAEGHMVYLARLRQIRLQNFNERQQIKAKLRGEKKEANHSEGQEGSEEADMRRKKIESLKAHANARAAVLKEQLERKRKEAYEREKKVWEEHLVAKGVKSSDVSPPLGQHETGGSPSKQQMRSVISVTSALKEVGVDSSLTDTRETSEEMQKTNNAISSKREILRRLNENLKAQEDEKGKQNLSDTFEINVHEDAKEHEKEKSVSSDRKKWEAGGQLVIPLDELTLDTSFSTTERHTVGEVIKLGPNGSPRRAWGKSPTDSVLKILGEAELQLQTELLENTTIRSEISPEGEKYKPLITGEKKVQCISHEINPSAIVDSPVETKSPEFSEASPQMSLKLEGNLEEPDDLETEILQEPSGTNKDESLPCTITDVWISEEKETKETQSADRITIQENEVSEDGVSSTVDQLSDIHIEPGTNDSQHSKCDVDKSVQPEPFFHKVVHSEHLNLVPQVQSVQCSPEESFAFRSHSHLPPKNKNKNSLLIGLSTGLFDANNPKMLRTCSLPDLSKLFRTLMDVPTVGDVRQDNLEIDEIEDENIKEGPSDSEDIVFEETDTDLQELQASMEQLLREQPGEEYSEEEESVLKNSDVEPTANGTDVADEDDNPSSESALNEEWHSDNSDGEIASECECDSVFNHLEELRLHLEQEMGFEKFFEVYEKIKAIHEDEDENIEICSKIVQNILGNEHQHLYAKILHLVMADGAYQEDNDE
Protocol: as §1

NEK11 = molecular target: T21, NEK11 (Homo sapiens, UniProt Q8NG66); test: DiscoverX KINOMEscan; assay type: binding; conditions: read-out: % Control
T21 construct: purchased DiscoverX KINOMEscan
T21 sequence (Q8NG66 whole entry): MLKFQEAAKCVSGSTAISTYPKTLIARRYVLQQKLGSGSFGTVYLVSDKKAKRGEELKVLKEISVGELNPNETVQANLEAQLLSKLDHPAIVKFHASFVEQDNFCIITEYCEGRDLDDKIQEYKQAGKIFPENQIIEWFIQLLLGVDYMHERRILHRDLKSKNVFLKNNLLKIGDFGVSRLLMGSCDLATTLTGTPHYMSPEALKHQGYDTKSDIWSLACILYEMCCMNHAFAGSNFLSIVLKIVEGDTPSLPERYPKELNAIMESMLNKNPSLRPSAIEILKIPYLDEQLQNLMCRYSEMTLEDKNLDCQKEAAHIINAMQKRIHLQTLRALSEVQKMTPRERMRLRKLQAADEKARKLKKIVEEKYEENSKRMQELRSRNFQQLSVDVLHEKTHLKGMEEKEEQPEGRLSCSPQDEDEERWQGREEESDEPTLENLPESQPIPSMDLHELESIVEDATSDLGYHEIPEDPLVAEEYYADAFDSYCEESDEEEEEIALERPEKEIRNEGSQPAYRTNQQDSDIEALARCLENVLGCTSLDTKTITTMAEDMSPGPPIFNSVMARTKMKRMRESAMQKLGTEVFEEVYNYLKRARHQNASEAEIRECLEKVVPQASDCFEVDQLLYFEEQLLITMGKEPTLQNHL
Protocol: as §1

CHUK = molecular target: T22, CHUK (Homo sapiens, UniProt O15111); test: DiscoverX KINOMEscan; assay type: binding; conditions: read-out: % Control
T22 construct: purchased DiscoverX KINOMEscan
T22 sequence (O15111 whole entry): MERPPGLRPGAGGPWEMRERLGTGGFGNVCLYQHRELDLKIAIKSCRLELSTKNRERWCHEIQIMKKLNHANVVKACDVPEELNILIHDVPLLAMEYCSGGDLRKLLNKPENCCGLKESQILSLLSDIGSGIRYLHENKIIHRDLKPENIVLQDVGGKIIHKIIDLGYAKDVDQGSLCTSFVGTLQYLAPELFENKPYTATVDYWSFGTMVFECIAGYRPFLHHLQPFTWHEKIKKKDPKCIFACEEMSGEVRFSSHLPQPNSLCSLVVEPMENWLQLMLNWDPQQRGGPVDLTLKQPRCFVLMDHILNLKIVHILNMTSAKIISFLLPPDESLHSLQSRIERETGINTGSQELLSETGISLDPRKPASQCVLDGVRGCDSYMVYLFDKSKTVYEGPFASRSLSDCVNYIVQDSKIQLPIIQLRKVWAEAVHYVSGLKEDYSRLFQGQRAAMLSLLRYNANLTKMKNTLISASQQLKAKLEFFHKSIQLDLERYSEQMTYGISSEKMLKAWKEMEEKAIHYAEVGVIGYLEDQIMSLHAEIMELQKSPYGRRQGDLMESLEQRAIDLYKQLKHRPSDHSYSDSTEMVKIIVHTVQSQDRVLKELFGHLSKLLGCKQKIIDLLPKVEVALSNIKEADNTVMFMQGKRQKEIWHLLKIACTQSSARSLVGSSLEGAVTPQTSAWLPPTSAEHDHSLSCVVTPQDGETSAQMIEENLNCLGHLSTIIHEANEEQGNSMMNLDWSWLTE
Protocol: as §1

WEE2 = molecular target: T23, WEE2 (Homo sapiens, UniProt P0C1S8); test: DiscoverX KINOMEscan; assay type: binding; conditions: read-out: % Control
T23 construct: purchased DiscoverX KINOMEscan
T23 sequence (P0C1S8 whole entry): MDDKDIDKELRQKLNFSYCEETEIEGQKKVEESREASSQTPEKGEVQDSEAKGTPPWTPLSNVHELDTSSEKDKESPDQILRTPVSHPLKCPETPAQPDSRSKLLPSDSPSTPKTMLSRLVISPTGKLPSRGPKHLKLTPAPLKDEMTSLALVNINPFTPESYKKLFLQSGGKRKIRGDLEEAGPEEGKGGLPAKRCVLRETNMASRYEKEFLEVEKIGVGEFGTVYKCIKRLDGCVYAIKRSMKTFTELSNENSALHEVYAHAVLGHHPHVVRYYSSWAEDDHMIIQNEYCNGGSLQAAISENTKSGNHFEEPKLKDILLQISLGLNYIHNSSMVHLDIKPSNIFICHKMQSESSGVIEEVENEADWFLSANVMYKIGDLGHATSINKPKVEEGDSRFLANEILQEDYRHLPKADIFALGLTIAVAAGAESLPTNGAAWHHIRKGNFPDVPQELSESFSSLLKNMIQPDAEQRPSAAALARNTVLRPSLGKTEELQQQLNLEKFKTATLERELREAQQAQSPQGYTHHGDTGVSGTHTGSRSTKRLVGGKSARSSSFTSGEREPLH
Protocol: as §1

TLK1 = molecular target: T24, TLK1 (Homo sapiens, UniProt Q9UKI8); test: DiscoverX KINOMEscan; assay type: binding; conditions: read-out: % Control
T24 construct: purchased DiscoverX KINOMEscan
Protocol: as §1

SMILES: O=C(O)CCc1ccc(-c2ccc(Br)cc2)n1-c1ccccc1C(F)(F)F [Poloppin]
- GI50 ([1]; read-out: Mean GI50, organoids KRAS MUT p53 MUT #1, n=2): 22.9 µM
- GI50 ([1]; read-out: Mean GI50, organoids KRAS MUT p53 MUT #2, n=2): 28.4 µM
- remaining binding at 50 µM (ULK3): 94%
- remaining binding at 50 µM (WNK3): 100%
- remaining binding at 50 µM (CSNK2A2): 84%
- remaining binding at 50 µM (SgK110): 94%
- remaining binding at 50 µM (BUB1): 99%
- remaining binding at 50 µM (AURKB): 87%
- remaining binding at 50 µM (NEK7): 68%
- remaining binding at 50 µM (EIF2AK2): 69%
- remaining binding at 50 µM (GAK): 100%
- remaining binding at 50 µM (AAK1): 92%
- remaining binding at 50 µM (TBK1): 75%
- remaining binding at 50 µM (WEE1): 99%
- remaining binding at 50 µM (NEK9): 95%
- remaining binding at 50 µM (EIF2AK4): 100%
- remaining binding at 50 µM (CDK2): 84%
- remaining binding at 50 µM (WNK2): 100%
- remaining binding at 50 µM (NEK4): 100%
- remaining binding at 50 µM (NEK6): 96%
- remaining binding at 50 µM (SBK1): 61%
- remaining binding at 50 µM (NEK1): 57%
- remaining binding at 50 µM (NEK11): 100%
- remaining binding at 50 µM (CHUK): 100%
- remaining binding at 50 µM (WEE2): 86%
- remaining binding at 50 µM (TLK1): 100%

SMILES: CN(C)CCNC(=O)c1ccc(-c2ccc(-c3ccc(Cl)cc3)n2-c2ccccc2C(F)(F)F)cc1 [Poloppin-II]
- GI50 ([1]; organoids KRAS MUT p53 MUT #2, n=2, read-out: Mean GI50): 22.9 µM
- remaining binding at 5 µM (ULK3; ULK3, Poloppin-II 5µM, hit <35%): 88%
- remaining binding at 5 µM (WNK3; WNK3, Poloppin-II 5µM, hit <35%): 100%
- remaining binding at 5 µM (CSNK2A2; CSNK2A2, Poloppin-II 5µM, hit <35%): 92%
- remaining binding at 5 µM (SgK110; SgK110, Poloppin-II 5µM, hit <35%): 100%
- remaining binding at 5 µM (BUB1; BUB1, Poloppin-II 5µM, hit <35%): 90%
- remaining binding at 5 µM (AURKB; AURKB, Poloppin-II 5µM, hit <35%): 95%
- remaining binding at 5 µM (NEK7; NEK7, Poloppin-II 5µM, hit <35%): 79%
- remaining binding at 5 µM (EIF2AK2; EIF2AK2, Poloppin-II 5µM, hit <35%): 90%
- remaining binding at 5 µM (GAK; GAK, Poloppin-II 5µM, hit <35%): 100%
- remaining binding at 5 µM (AAK1; AAK1, Poloppin-II 5µM, hit <35%): 100%
- remaining binding at 5 µM (TBK1; TBK1, Poloppin-II 5µM, hit <35%): 80%
- remaining binding at 5 µM (WEE1; WEE1, Poloppin-II 5µM, hit <35%): 98%
- remaining binding at 5 µM (NEK9; NEK9, Poloppin-II 5µM, hit <35%): 92%
- remaining binding at 5 µM (EIF2AK4; EIF2AK4, Poloppin-II 5µM, hit <35%): 97%
- remaining binding at 5 µM (CDK2; CDK2, Poloppin-II 5µM, hit <35%): 89%
- remaining binding at 5 µM (WNK2; WNK2, Poloppin-II 5µM, hit <35%): 100%
- remaining binding at 5 µM (NEK4; NEK4, Poloppin-II 5µM, hit <35%): 100%
- remaining binding at 5 µM (NEK6; NEK6, Poloppin-II 5µM, hit <35%): 99%
- remaining binding at 5 µM (SBK1; SBK1, Poloppin-II 5µM, hit <35%): 61%
- remaining binding at 5 µM (NEK1; NEK1, Poloppin-II 5µM, hit <35%): 100%
- remaining binding at 5 µM (NEK11; NEK11, Poloppin-II 5µM, hit <35%): 100%
- remaining binding at 5 µM (CHUK; CHUK, Poloppin-II 5µM, hit <35%): 100%
- remaining binding at 5 µM (WEE2; WEE2, Poloppin-II 5µM, hit <35%): 92%
- remaining binding at 5 µM (TLK1; TLK1, Poloppin-II 5µM, hit <35%): 99%
